Measured values as given in ChEMBL document CHEMBL1125531, “Synthetic nonpsychotropic cannabinoids with potent antiinflammatory, analgesic, and leukocyte antiadhesion activities” (1992).
Several values for one entry are separate records, joined by “and”; a condition that tells them apart may be missing. Equal entries are not always repeated.

Experiments:
Type in all cases: functional
Mus musculus [1] = experiment: Compound was evaluated for the percent inhibition of PAF-induced Paw edema at the dose 0.25 (mg/kg) (Increases in paw volume is 24 uL)
Mus musculus [2] = experiment: Compound was evaluated for the percent inhibition of PAF-induced Paw edema at the dose 0.5 (mg/kg) (Increases in paw volume is 28 uL)
Mus musculus [3] = experiment: Compound was evaluated for the percent inhibition of PAF-induced Paw edema at the dose 0.1 (mg/kg) (Increases in paw volume is 38 uL)
Mus musculus [4] = experiment: Compound was evaluated for the antinociceptive effects at the dose 0.25(mg/kg)
Mus musculus [5] = experiment: Compound was evaluated for the antinociceptive effects at the dose 0.5(mg/kg)
Mus musculus [6] = experiment: Compound was evaluated for the antinociceptive effects at the dose 1.0(mg/kg)
Mus musculus [7] = experiment: Compound was evaluated for the antinociceptive effects at the dose 2.0(mg/kg)
Mus musculus [8] = experiment: Compound was evaluated for the antinociceptive effects at the dose 4.0(mg/kg)
Mus musculus [9] = experiment: Compound was evaluated for the percent inhibition of PAF-induced Paw edema at the dose 0.25 (mg/kg) (Increases in paw volume is 11 uL)
Mus musculus [10] = experiment: Compound was evaluated for the percent inhibition of PAF-induced Paw edema at the dose 0.5 (mg/kg) (Increases in paw volume is 7.5 uL)
Mus musculus [11] = experiment: Compound was evaluated for the percent inhibition of arachidonic acid-induced paw edema at the dose 0.05(mg/kg)
Mus musculus [12] = experiment: Compound was evaluated for the percent inhibition of arachidonic acid-induced paw edema at the dose 0.1(mg/kg)
Mus musculus [13] = experiment: Compound was evaluated for the percent inhibition of arachidonic acid-induced paw edema at the dose 0.25(mg/kg)
Mus musculus [14] = experiment: Compound was evaluated for the percent inhibition of arachidonic acid-induced paw edema at the dose 0.5(mg/kg)
Mus musculus [15] = experiment: Compound was evaluated for the percent inhibition of PAF-induced Paw edema at the dose 0.05 (mg/kg) (Increases in paw volume is 10 uL)
Mus musculus [16] = experiment: Compound was evaluated for the effect on leukocyte adhesion at the dose 0.01 (mg/kg); oral administration
Mus musculus [17] = experiment: Compound was evaluated for the effect on leukocyte adhesion at the dose 0.05 (mg/kg); oral administration
Mus musculus [18] = experiment: Compound was evaluated for the effect on leukocyte adhesion at the dose 0.1 (mg/kg); oral administration
Mus musculus [19] = experiment: Compound was evaluated for the effect on leukocyte adhesion at the dose 0.5 (mg/kg); oral administration
Mus musculus [20] = experiment: Compound was evaluated for the effect on leukocyte adhesion at the dose 1.0 (mg/kg); oral administration
Mus musculus [21] = experiment: Compound was evaluated for the antinociceptive effects at the dose 0.025(mg/kg)
Mus musculus [22] = experiment: Compound was evaluated for the antinociceptive effects at the dose 0.05(mg/kg)
Mus musculus [23] = experiment: Compound was evaluated for the antinociceptive effects at the dose 0.1(mg/kg)
Mus musculus [24] = experiment: Compound was evaluated for the cataleptic effect in the mouse at the dose 0.25(mg/kg)
Mus musculus [25] = experiment: Compound was evaluated for the cataleptic effect in the mouse at the dose 0.5(mg/kg)
Mus musculus [26] = experiment: Compound was evaluated for the cataleptic effect in the mouse at the dose 1.0(mg/kg)
Mus musculus [27] = experiment: Compound was evaluated for the cataleptic effect in the mouse at the dose 4.0(mg/kg)
Mus musculus [28] = experiment: Compound was evaluated for the percent inhibition of PAF-induced Paw edema at the dose 0.1 (mg/kg) (Increases in paw volume is 19 uL)
Mus musculus [29] = experiment: Compound was evaluated for the percent inhibition of PAF-induced Paw edema at the dose 0.1 (mg/kg) (Increases in paw volume is -10 uL)
Mus musculus [30] = experiment: Compound was evaluated for the percent inhibition of PAF-induced Paw edema at the dose 0.25 (mg/kg) (Increases in paw volume is -14 uL)
Mus musculus [31] = experiment: Compound was evaluated for the percent inhibition of PAF-induced Paw edema at the dose 0.5 (mg/kg) (Increases in paw volume is -20 uL)
Mus musculus [32] = experiment: Compound was evaluated for the percent inhibition of PAF-induced Paw edema at the dose 0.05 (mg/kg) (Increases in paw volume is -1.2 uL)
Mus musculus [33] = experiment: Compound was evaluated for the cataleptic effect in the mouse at the dose 0.1(mg/kg)
Mus musculus [34] = experiment: Compound was evaluated for the effect on leukocyte adhesion at the dose 40 (mg/kg); oral administration
Mus musculus [35] = experiment: Compound was evaluated for the cataleptic effect in the mouse at the dose 0.5 mg/kg
Mus musculus [36] = experiment: Compound was evaluated for the cataleptic effect in the mouse at the dose 5.0(mg/kg)
Mus musculus [37] = experiment: Compound was evaluated for the effect on leukocyte adhesion at the dose 20 (mg/kg); oral administration
Mus musculus [38] = experiment: Compound was evaluated for the percent inhibition of PAF-induced Paw edema at the dose 0.5 (mg/kg) (Increases in paw volume is 44 uL)
Mus musculus [39] = experiment: Compound was evaluated for the percent inhibition of PAF-induced Paw edema at the dose 1.0 (mg/kg) (Increases in paw volume is 28 uL)
Mus musculus [40] = experiment: Compound was evaluated for the percent inhibition of PAF-induced Paw edema at the dose 1.0 (mg/kg) (Increases in paw volume is 14 uL)
Mus musculus [41] = experiment: Compound was evaluated for the percent inhibition of PAF-induced Paw edema at the dose 0.5 (mg/kg) (Increases in paw volume is 30 uL)
Mus musculus [42] = experiment: Compound was evaluated for the effect on leukocyte adhesion at the dose 0.5(mg/kg); oral administration
Mus musculus [43] = experiment: Compound was evaluated for the effect on leukocyte adhesion at the dose 0.2 (mg/kg); oral administration
Mus musculus [44] = experiment: Compound was evaluated for the cataleptic effect in the mouse at the dose 40 mg/kg

CCCCCCC(C)(C)c1cc(O)c2c(c1)OC(C)(C)C1CC=C(C(=O)OC)C[C@H]21 (some centres undefined)
Inhibition (Mus musculus [1]): 7.6%
Inhibition (Mus musculus [2]): -7.5%
Inhibition (Mus musculus [3]): -44.2%
Change (Mus musculus [4]): 10.4%
Change (Mus musculus [5]): 49%
Change (Mus musculus [6]): 61.4%
Change (Mus musculus [7]): 37.5%
Change (Mus musculus [8]): 3.1%

CCCCCCC(C)(C)c1cc(O)c2c(c1)OC(C)(C)C1CC=C(C(=O)O)C[C@H]21 (some centres undefined)
Inhibition (Mus musculus [9]): 31.9%
Inhibition (Mus musculus [10]): 60.1%
Inhibition (Mus musculus [11]): 42.1%
Inhibition (Mus musculus [12]): 65.8%
Inhibition (Mus musculus [13]): 52.6%
Inhibition (Mus musculus [14]): 47.4%
Inhibition (Mus musculus [15]): 44.4%
No. of cells (Mus musculus [16]): 1.34
No. of cells (Mus musculus [17]): 1.29
No. of cells (Mus musculus [18]): 1.38
No. of cells (Mus musculus [19]): 1.46
No. of cells (Mus musculus [20]): 0.7
Change (Mus musculus [21]): 10.3%
Change (Mus musculus [22]): 61.7%
Change (Mus musculus [23]): 49.5%
Change (Mus musculus [4]): 61.5%
Change (Mus musculus [5]): 51.7%
Change (Mus musculus [6]): 14.7%
Response (Mus musculus [24]): 12.3
Response (Mus musculus [25]): 13.8
Response (Mus musculus [26]): 10.4
Response (Mus musculus [27]): 8.7
Inhibition (Mus musculus [28]): 38.7%

CCCCCCC(C)(C)c1cc(O)c2c(c1)OC(C)(C)[C@@H]1CC=C(C(=O)OC)CC21 (some centres undefined)
Inhibition (Mus musculus [9]): 63.9%
Inhibition (Mus musculus [10]): 76%
Change (Mus musculus [5]): -2.8%
Change (Mus musculus [7]): 42.9%
Inhibition (Mus musculus [28]): 69.3%

CCCCCCC(C)(C)c1cc(O)c2c(c1)OC(C)(C)[C@@H]1CC=C(C(=O)O)CC21 (some centres undefined)
Inhibition (Mus musculus [29]): 135%
Inhibition (Mus musculus [30]): 150%
Inhibition (Mus musculus [31]): 171%
Inhibition (Mus musculus [11]): 26.3%
Inhibition (Mus musculus [12]): 52.6%
Inhibition (Mus musculus [13]): 56.4%
Inhibition (Mus musculus [14]): 73.7% and 97.4% and 100%
Inhibition (Mus musculus [32]): 101%
No. of cells (Mus musculus [16]): 0.88
No. of cells (Mus musculus [17]): 1.34
No. of cells (Mus musculus [18]): 0.64
No. of cells (Mus musculus [19]): 0.87
No. of cells (Mus musculus [20]): 0.3
Change (Mus musculus [21]): 20.8%
Change (Mus musculus [22]): 85%
Change (Mus musculus [23]): 68.3%
Change (Mus musculus [4]): 33.4%
Change (Mus musculus [5]): 34%
Change (Mus musculus [6]): 28.4%
Response (Mus musculus [33]): 5.8
Response (Mus musculus [26]): 12.2

CCCCCc1cc(O)c2c(c1)OC(C)(C)[C@H]1C(C(=O)O)CC(C)=CC21 (some centres undefined)
No. of cells (Mus musculus [34]): 0.55
No. of cells (Mus musculus [35]): 10
No. of cells (Mus musculus [36]): 10.1
No. of cells (Mus musculus [37]): 0.67

CCCCCCC(C)(C)c1cc(O)c2c(c1)OC(C)(C)C1CC=C(CO)C[C@H]21 (some centres undefined)
Inhibition (Mus musculus [38]): -37.5%
Inhibition (Mus musculus [39]): 21.8%
No. of cells (Mus musculus [17]): 1.09
No. of cells (Mus musculus [18]): 0.44
No. of cells (Mus musculus [19]): 0.64
No. of cells (Mus musculus [20]): 0.59

CCCCCCC(C)(C)c1cc(O)c2c(c1)OC(C)(C)[C@@H]1CC=C(CO)CC21 (some centres undefined)
Inhibition (Mus musculus [40]): 56.3%
Inhibition (Mus musculus [41]): 6.3%
No. of cells (Mus musculus [17]): 1.12
No. of cells (Mus musculus [42]): 0.59
No. of cells (Mus musculus [18]): 0.94
No. of cells (Mus musculus [43]): 0.58

CCCCCc1cc(O)c2c(c1)OC(C)(C)[C@@H]1CCC(C)=C[C@@H]21 [DRONABINOL]
Cataleptic effect (Mus musculus [44]): 48.9
